Experimental data: patent publication US10750743B2, “Pyridazinone herbicides” (E.I. DU PONT DE NEMOURS AND COMPANY, priority 2015, dated 2020)

Assays:
Type in all cases: in vivo
kochia (Kochia scoparia) [1] = test: Test A preemergence, directed soil spray, visual injury rating; conditions: 0 is no effect, 100 is complete control
How it was run: (§1)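 Seeds sown in a loam soil–sand blend received a directed preemergence soil spray of test chemical in a non-phytotoxic solvent mixture with surfactant. Postemergence plants were sprayed at 2 to 10 cm, one- to two-leaf stage. After approximately 10 d in greenhouse, injury was visually rated 0 (no effect) to 100 (complete control) against untreated controls.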

[2] = system: barnyardgrass (Echinochloa crus-galli); test: as above; conditions: 0 is no effect, 100 is complete control
How it was run: as §1

[3] = system: ragweed (common ragweed, Ambrosia elatior); test: as above; conditions: 0 is no effect, 100 is complete control
How it was run: as §1

[4] = system: pigweed (Amaranthus retroflexus); test: as above; conditions: 0 is no effect, 100 is complete control
How it was run: as §1

Foxtail, Green [5] = test: as above; conditions: 0 is no effect, 100 is complete control
[6] = system: ryegrass, It. (Italian ryegrass, Lolium multiflorum); test: as above; conditions: 0 is no effect, 100 is complete control
How it was run: as §1

[7] = system: ducksalad (Heteranthera limosa); test: Test B flooded paddy test, visual rating; conditions: Flood, 250 g ai/ha, applied to paddy water, rated after 13 to 15 d
How it was run: (§2)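 Plants at the 2-leaf stage were flooded to 3 cm above soil, and test compounds were applied directly into the paddy water, which was held at that depth throughout. After 13 to 15 d in a greenhouse, injury was rated visually against untreated controls on a 0–100 scale (0 no effect, 100 complete control).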

[8] = system: barnyardgrass (Echinochloa crus-galli); test: Test B flooded paddy test, visual rating; conditions: Flood, 250 g ai/ha, applied to paddy water, rated after 13 to 15 d
How it was run: as §2

[9] = system: sedge, umbrella (small-flower umbrella sedge, Cyperus difformis); test: Test B flooded paddy test, visual rating; conditions: Flood, 250 g ai/ha, applied to paddy water, rated after 13 to 15 d
How it was run: as §2

rice (Oryza sativa) = test: Test B flooded paddy test, visual rating; conditions: Flood, 250 g ai/ha, applied to paddy water, rated after 13 to 15 d
How it was run: as §2

[10] = system: blackgrass (Alopecurus myosuroides); test: Test A postemergence application, visual injury rating; conditions: 0 to 100 scale, 0 no effect, 100 complete control
How it was run: as §1

kochia (Kochia scoparia) [11] = test: as above; conditions: for Kochia plant response rating: 0 to 100 scale, 0 no effect, 100 complete control
How it was run: as §1

[12] = system: barnyardgrass (Echinochloa crus-galli); test: as above; conditions: 0 to 100 scale, 0 no effect, 100 complete control
How it was run: as §1

corn (Zea mays) = test: as above; conditions: for Corn plant response rating: 0 to 100 scale, 0 no effect, 100 complete control
How it was run: as §1

[13] = system: ragweed (common ragweed, Ambrosia elatior); test: as above; conditions: for Ragweed plant response rating: 0 to 100 scale, 0 no effect, 100 complete control
How it was run: as §1

[14] = system: pigweed (Amaranthus retroflexus); test: as above; conditions: for Pigweed plant response rating: 0 to 100 scale, 0 no effect, 100 complete control
How it was run: as §1

Foxtail, Green [15] = test: as above; conditions: for Foxtail, Green plant response rating: 0 to 100 scale, 0 no effect, 100 complete control
[16] = system: galium (catchweed bedstraw, Galium aparine); test: as above; conditions: for Galium plant response rating: 0 to 100 scale, 0 no effect, 100 complete control
How it was run: as §1

[17] = system: ryegrass, It. (Italian ryegrass, Lolium multiflorum); test: as above; conditions: for Ryegrass, It. plant response rating: 0 to 100 scale, 0 no effect, 100 complete control
How it was run: as §1

[18] = system: wheat (Triticum aestivum); test: as above; conditions: for Wheat plant response rating: 0 to 100 scale, 0 no effect, 100 complete control
How it was run: as §1

[19] = 31 g ai/ha, 0 is no effect, 100 is complete control

Structure (SMILES) | Plant response rating (0 to 100 scale), Kochia (kochia (Kochia scoparia) [1]; 31 g ai/ha) | Plant response rating (0 to 100 scale), Kochia (kochia (Kochia scoparia) [1]; 125 g ai/ha) | Plant response rating (0 to 100 scale), Barnyardgrass ([2]; 31 g ai/ha) | Plant response rating (0 to 100 scale), Barnyardgrass ([2]; 125 g ai/ha) | Plant response rating (0 to 100 scale), Ragweed ([3]; 31 g ai/ha) | Plant response rating (0 to 100 scale), Ragweed ([3]; 125 g ai/ha) | Plant response rating (0 to 100 scale), Pigweed ([4]; 31 g ai/ha) | Plant response rating (0 to 100 scale), Pigweed ([4]; 125 g ai/ha) | Plant response rating (0 to 100 scale), Foxtail, Green (Foxtail, Green [5]; 31 g ai/ha) | Plant response rating (0 to 100 scale), Foxtail, Green (Foxtail, Green [5]; 125 g ai/ha) | Plant response rating (0 to 100 scale), Ryegrass, It. ([6]; 31 g ai/ha) | Plant response rating (0 to 100 scale), Ryegrass, It. ([6]; 125 g ai/ha) | Ducksalad plant response rating (0 to 100 scale, 0 is no effect, 100 is complete control) [7] | Barnyardgrass plant response rating (0 to 100 scale, 0 is no effect, 100 is complete control) [8] | Sedge, Umbrella plant response rating (0 to 100 scale, 0 is no effect, 100 is complete control) [9] | Rice plant response rating (0 to 100 scale, 0 is no effect, 100 is complete control) (rice (Oryza sativa)) | Blackgrass plant response rating ([10]; 31 g ai/ha) | Blackgrass plant response rating ([10]; 125 g ai/ha) | Kochia plant response rating (kochia (Kochia scoparia) [11]; 125 g ai/ha) | Barnyardgrass plant response rating ([12]; 31 g ai/ha) | also measured
Cc1nn(C)c(=O)c(-c2ccc(Cl)c3ccoc23)c1O [Compound 56] | 0 | 0 | 0 | 0 | 0 | 0 | 0 | 40 | 0 | 0 | 10 | 70 | 0 | 0 | 0 | 0 | 0 | 0 | 0 | 0 | Kochia plant response rating (kochia (Kochia scoparia) [11]; 31 g ai/ha): 0; Barnyardgrass plant response rating ([12]; 125 g ai/ha): 10; Corn plant response rating (corn (Zea mays); 31 g ai/ha): 0; Corn plant response rating (corn (Zea mays); 125 g ai/ha): 0; Ragweed plant response rating ([13]; 31 g ai/ha): 0; Ragweed plant response rating ([13]; 125 g ai/ha): 0; Pigweed plant response rating ([14]; 31 g ai/ha): 0; Pigweed plant response rating ([14]; 125 g ai/ha): 0; Foxtail, Green plant response rating (Foxtail, Green [15]; 31 g ai/ha): 0; Foxtail, Green plant response rating (Foxtail, Green [15]; 125 g ai/ha): 10; Galium plant response rating ([16]; 31 g ai/ha): 60; Galium plant response rating ([16]; 125 g ai/ha): 100; Ryegrass, It. plant response rating ([17]; 31 g ai/ha): 50; Ryegrass, It. plant response rating ([17]; 125 g ai/ha): 50; Wheat plant response rating ([18]; 31 g ai/ha): 0; Wheat plant response rating ([18]; 125 g ai/ha): 0
Cn1nc(Cl)c(O)c(-c2cccc3c2nnn3C)c1=O [Compound 61] | 0 | 0 | 0 | 0 | 0 | 0 | 0 | 0 | 0 | 0 | 0 | 0 | 0 | 0 | 0 | 0 | 0 | 0 | 0 | 0 | Plant response rating (0 to 100 scale), Kochia (kochia (Kochia scoparia) [11]; [19]): 0; Barnyardgrass plant response rating ([12]; 125 g ai/ha): 0; Plant response rating (0 to 100 scale), Corn (corn (Zea mays); [19]): 0; Corn plant response rating (corn (Zea mays); 125 g ai/ha): 0; Plant response rating (0 to 100 scale), Ragweed [13, 19]: 0; Ragweed plant response rating ([13]; 125 g ai/ha): 0; Plant response rating (0 to 100 scale), Pigweed [14, 19]: 0; Pigweed plant response rating ([14]; 125 g ai/ha): 0; Plant response rating (0 to 100 scale), Foxtail, Green (Foxtail, Green [15]; [19]): 0; Foxtail, Green plant response rating (Foxtail, Green [15]; 125 g ai/ha): 0; Plant response rating (0 to 100 scale), Galium [16, 19]: 0; Galium plant response rating ([16]; 125 g ai/ha): 0; Plant response rating (0 to 100 scale), Ryegrass, It. [17, 19]: 0; Ryegrass, It. plant response rating ([17]; 125 g ai/ha): 0; Plant response rating (0 to 100 scale), Wheat [18, 19]: 0; Wheat plant response rating ([18]; 125 g ai/ha): 0
